The results in this text go back to patent publication US20040248918A1, “N-phenyl-2-pyrimidine-amine derivatives and process for the preparation thereof” (IL YANG PHARM. CO., LTD., priority 2003, published 2004).

Structures can show the parent of a compound that is named as a salt.

Data set [1] concerns K562 cancer cell (CML cell line). Briefly: Growth inhibition of K562 cancer cell (MTT). It is filed as cell-based. The settings on record: for IC50: Homo sapiens, K562, 48 h, K562, 2 days, MTT, read-out: IC50. On the procedure: In the present experiment, the inhibitory activity of the compound of formula (1) was determined against the growth of K562 cancer cell. First, the cells were allowed to stand in RPMI (Roswell Park Memorial Institute)-1640 medium containing 10% (v/v) fetal bovine serum in an incubator of 37° C. and 5% by volume of CO2. The cancer cells (1000 cells) were transferred to a 96-well plate, and the test compound was diluted. The plate was allowed to stand under the above mentioned conditions for 2 days. […] The supernatant was removed to leave the resulting crystal.

The test system of data set [2] is L1210 cancer cell (leukemia cell line). Briefly: Growth inhibition of L1210 cancer cell (MTT). The following applies: for IC50: Mus musculus. The format is cell-based. The method, then:
(§1) In the present experiment, the inhibitory activity of the compound of formula (1) was determined against the growth of K562 cancer cell. First, the cells were allowed to stand in RPMI (Roswell Park Memorial Institute)-1640 medium containing 10% (v/v) fetal bovine serum in an incubator of 37° C. and 5% by volume of CO2. The cancer cells (1000 cells) were transferred to a 96-well plate, and the test compound was diluted. The plate was allowed to stand under the above mentioned conditions for 2 days. After this treatment, to the cells was added 0.2% MTT (3-[4,5-dimethylthiazol-2-yl]-2,5-diphenyltetrazolium bromide) solution, and the resulting mixture was allowed to stand under the constant temperature-condition for 4 hours. The supernatant was removed to leave the resulting crystal. DMSO was added to dissolve the crystal, and the absorbance of the solution was measured at 540 nm. IC50 value was calculated using a computer system according to the following formula: […]
In the present experiment, the inhibitory activity of the compound of formula (1) was determined against the growth of L1210 cancer cell. The test was performed according to the same procedure as Experiment 1.

For data set [3], the system named is U937 cancer cell (monocyte like leukemia cell line). In words: Growth inhibition of U937 cancer cell (MTT). It is filed as cell-based. The following applies: Homo sapiens, U-937. The method, then:
as §1
In the present experiment, the inhibitory activity of the compound of formula (1) was determined against the growth of U937 cancer cell. The test was performed according to the same procedure as Experiment 1.

A short description of data set [4]: Comparative pharmacokinetic test in white rats. The format is in vivo, white rats (Sprague-Dawley). The following applies: male, Sprague-Dawley, plasma, po, rat, 100 mg/kg, P.O. The method, then: On the previous day to the test, white rats (Sprague-Dawley, 250˜280 g, male) were put under anesthesia by pentobarbital sodium (50 mg/kg, I.P.). Then, cannula (polyethylene tube; diameter: 0.58mm) was introduced into the rats via the carotid artery and jugular vein, and drawn out to the back. After the operation, the rats were fasted for 16 hours and used for the test. […] Blood was collected in 0, 0.5, 1, 1.5, 2, 2.5, 3, 3.5, 4, 4.5, 5, 6, 8, 10, 12, and 24 hours from the carotid artery. The samples for HPLC analysis were prepared using the collected blood according to the following procedure and were analyzed under the following conditions.
Blood was collected by an amount of 0.5 ml at each prearranged time and centrifuged at 15000 rpm for 7 minutes to separate […] of plasma. In order to remove proteins, MeOH was added in an amount of […], twice as much as the amount of plasma, and the mixture was shaken for 30 minutes. The mixture was centrifuged again at 15000 rpm for 5 minutes to give protein free supernatant, which was then analyzed by HPLC.
Flow rate: 1.0 ml/min, UV detection at 267 nm
Column: 4.6×150 mm, 5C18-AR-II, COSMOSIL
Eluent: Mixture of ion pair sample (420 ml) and MeOH (580 ml)
Ion pair sample: 7.5 g of 1-octanesulfonic acid was dissolved in 800 ml of water. The resulting mixture was adjusted to pH 2.5 using phosphoric acid and diluted with water to 1000 ml volume.
Here, the pharmacokinetic parameters are Tmax (time to reach the maximum blood concentration), Cmax (maximum blood concentration), AUC (area under the curve of time-blood concentration), and T1/2 (half time in blood), and the AUC was calculated under trapezoid rule (see Tables 6, 7 and FIGS. 1, 2).

A word on the melting point: it is the temperature, or range, at which the solid turns liquid. `CS(=O)(=O)O.Cc1cc(NC(=O)c2ccc(CNN3CCN(C)CC3)cc2)ccc1Nc1nccc(-c2cccnc2)n1`: the melting point lay within 172 to 174 °C.
Same read-out and setting: with `CC(=O)O.CN1CCN(NCc2ccc(C(=O)Nc3ccc(Nc4nccc(-c5cccnc5)n4)cc3)cc2)CC1` the figure was 169 to 171 °C.
For orientation: IC50 means the concentration that inhibits the measured activity by half. `CS(=O)(=O)O.Cc1ccc(Nc2nccc(-c3cccnc3)n2)cc1NC(=O)c1ccc(CN2CCCN(C)CC2)cc1` [Example 6, 4-(4-methylhomopiperazin-1-ylmethyl)-N-[2-methyl-5-(4-(pyridin-3-yl)pyrimidin-2-yl)aminophenyl]benzamide methanesulfonate] gave a melting point of 168 to 170 °C. Further, the half-inhibitory concentration (IC50) in data set [1] is 20.5 µg/mL. Further, in data set [2], the “Improved activity versus Imatinib mesylate” value amounted to 10 times and the half-maximal inhibitory concentration (IC50) came to 3.24 µg/mL. In data set [3], the IC50 came out at 5.14 µg/mL.
`CS(=O)(=O)O.Cc1ccc(Nc2nccc(-c3cccnc3)n2)cc1NC(=O)c1ccc(CNN2CCN(C)CC2)cc1` [Example 8, 4-(4-methylpiperazin-1-ylaminomethyl)-N-[2-methyl-5-(4-(pyridin-3-yl)pyrimidin-2-yl)aminophenyl]benzamide methanesulfonate] yielded a melting point of 150 to 152 °C. In addition, the IC50 in data set [1] was 27.6 µg/mL. In data set [2], the 50% inhibitory concentration (IC50) was determined as 7.38 µg/mL. Half-maximal inhibition in data set [3] (IC50) was put at 9.44 µg/mL.
With `CN1CCCN(Cc2ccc(C(=O)Nc3cccc(Nc4nccc(-c5cccnc5)n4)c3)cc2)CC1.CS(=O)(=O)O` [Example 12, 4-(4-methylhomopiperazin-1-ylmethyl)-N-[3-(4-(pyridin-3-yl)pyrimidin-2-yl)aminophenyl]benzamide methanesulfonate], the melting point was 206 to 208 °C. The half-maximal inhibitory concentration (IC50) in data set [1] came out at 10.2 µg/mL. Further, in data set [2], the “Improved activity versus Imatinib mesylate” value is reported as 32 times and 0.99 µg/mL corresponded to half-maximal inhibition (IC50). The same molecule showed an IC50 in data set [3] of 3.41 µg/mL.
Molecule `CN1CCN(NCc2ccc(C(=O)Nc3cccc(Nc4nccc(-c5cccnc5)n4)c3)cc2)CC1.CS(=O)(=O)O` [Example 14, 4-(4-methylpiperazin-1-ylaminomethyl)-N-[3-(4-(pyridin-3-yl)pyrimidin-2-yl)aminophenyl]benzamide methanesulfonate] came in with a melting point of 148 to 150 °C. Further, the IC50 in data set [1] came to 8.95 µg/mL.
Taken in the same sequence, the figures for `CS(=O)(=O)O.Cc1cc(NC(=O)c2ccc(CN3CCCN(C)CC3)cc2)ccc1Nc1nccc(-c2cccnc2)n1` [Example 16, 4-(4-methylhomopiperazin-1-ylmethyl)-N-[3-methyl-4-(4-(pyridin-3-yl)pyrimidin-2-yl)aminophenyl]benzamide methanesulfonate] were 166 to 168 °C and over 50 µg/mL.
`COc1ccc(NC(=O)c2ccc(CN3CCCN(C)CC3)cc2)cc1Nc1nccc(-c2cccnc2)n1.CS(=O)(=O)O` [Example 20, 4-(4-methylhomopiperazin-1-ylmethyl)-N-[4-methoxy-3-(4-(pyridin-3-yl)pyrimidin-2-yl)aminophenyl]benzamide methanesulfonate]: the melting point fell in the range of 140 to 142 °C. The half-inhibitory concentration (IC50) in data set [1] turned out to be 34.7 µg/mL. Moreover, in data set [2], the concentration for half-maximal inhibition (IC50) worked out at 4.32 µg/mL. Further, in data set [3], the midpoint of inhibition, the IC50, lay at 9.51 µg/mL.
On to `COc1ccc(NC(=O)c2ccc(CNN3CCN(C)CC3)cc2)cc1Nc1nccc(-c2cccnc2)n1.CS(=O)(=O)O` [Example 22, 4-(4-methylpiperazin-1-ylaminomethyl)-N-[4-methoxy-3-(4-(pyridin-3-yl)pyrimidin-2-yl)aminophenyl]benzamide methanesulfonate], for which the melting point is 142 to 144 °C. Moreover, in data set [1], the IC50 was 10 µg/mL. In data set [2], this molecule returned a concentration for half-maximal inhibition (IC50) of 4.46 µg/mL. In data set [3], the half-maximal inhibitory concentration (IC50) worked out at 8.61 µg/mL.
Turning to `CN1CCCN(Cc2ccc(C(=O)Nc3cc(Nc4nccc(-c5cccnc5)n4)ccc3F)cc2)CC1.CS(=O)(=O)O` [Example 24, 4-(4-methylhomopiperazin-1-ylmethyl)-N-[2-fluoro-5-(4-(pyridin-3-yl)pyrimidin-2-yl)aminophenyl]benzamide methanesulfonate], the melting point lay within 125 to 127 °C. Further, the half-maximal inhibitory concentration (IC50) in data set [1] amounted to 19.1 µg/mL.
Consider `CN1CCN(NCc2ccc(C(=O)Nc3cc(Nc4nccc(-c5cccnc5)n4)ccc3F)cc2)CC1.CS(=O)(=O)O` [Example 28, 4-(4-methylpiperazin-1-ylaminomethyl)-N-[2-fluoro-5-(4-(pyridin-3-yl)pyrimidin-2-yl)aminophenyl]benzamide methanesulfonate], for which the melting point fell in the range of 142 to 144 °C. Further, the IC50 in data set [1] amounted to 8.63 µg/mL.
Taken in the same sequence, the figures for `CN1CCN(NCc2ccc(C(=O)Nc3ccc(Nc4nccc(-c5cccnc5)n4)cc3)cc2)CC1.CS(=O)(=O)O` [Example 30, 4-(4-methylpiperazin-1-ylaminomethyl)-N-[4-(4-(pyridin-3-yl)pyrimidin-2-yl)aminophenyl]benzamide methanesulfonate] were 151 to 153 °C and 22.8 µg/mL.
Taken in the same sequence, the figures for `CN1CCN(Cc2ccc(C(=O)Nc3ccc(F)c(Nc4nccc(-c5cccnc5)n4)c3)cc2)CC1.CS(=O)(=O)O` [Example 32, 4-(4-methylpiperazin-1-ylmethyl)-N-[4-fluoro-3-(4-(pyridin-3-yl)pyrimidin-2-yl)aminophenyl]benzamide methanesulfonate] were 172 to 174 °C and 8.06 µg/mL.
For the molecule `CN1CCCN(Cc2ccc(C(=O)Nc3ccc(F)c(Nc4nccc(-c5cccnc5)n4)c3)cc2)CC1.CS(=O)(=O)O` [Example 34, 4-(4-methylhomopiperazin-1-ylmethyl)-N-[4-fluoro-3-(4-(pyridin-3-yl)pyrimidin-2-yl)aminophenyl]benzamide methanesulfonate], the melting point is 158 to 160 °C. Moreover, the 50% inhibitory concentration (IC50) in data set [1] came out at 7.17 µg/mL.
The molecule `CS(=O)(=O)O.O=C(Nc1cccc(Nc2nccc(-c3cccnc3)n2)c1)c1ccc(CN2CCCCC2)cc1` [Example 36, 4-(piperidin-1-ylmethyl)-N-[3-(4-(pyridin-3-yl)pyrimidin-2-yl)aminophenyl]benzamide methanesulfonate] had a melting point of 173 to 175 °C. The concentration for half-maximal inhibition (IC50) in data set [1] worked out at 11.3 µg/mL. Further, in data set [2], the IC50 came to 5.95 µg/mL. The molecule further had an IC50 in data set [3] of 6.91 µg/mL.
With `CN1CCCN(Cc2ccc(C(=O)Nc3ccc(Nc4nccc(-c5cccnc5)n4)cc3)cc2)CC1.Cl` [Example 41, 4-(4-methylhomopiperazin-1-ylmethyl)-N-[4-(4-(pyridin-3-yl)pyrimidin-2-yl)aminophenyl]benzamide hydrochloride], the concentration for half-maximal inhibition (IC50) in data set [1] came to 5.61 µg/mL.
As for `Cc1ccc(NC(=O)c2ccc(CNN3CCN(C)CC3)cc2)cc1Nc1nccc(-c2cccnc2)n1.Cl` [Example 42, 4-(4-methylpiperazin-1-ylaminomethyl)-N-[4-methyl-3-(4-(pyridin-3-yl)pyrimidin-2-yl)aminophenyl]benzamide hydrochloride], the half-inhibitory concentration (IC50) in data set [1] was 0.3 µg/mL. Further, in data set [1] (K562), the “Improved activity versus Imatinib mesylate” value was “much higher activity”.
Molecule `CN1CCN(NCc2ccc(C(=O)Nc3ccc(Nc4nccc(-c5cccnc5)n4)cc3)cc2)CC1.Cl` [Example 43, 4-(4-methylpiperazin-1-ylaminomethyl)-N-[4-(4-(pyridin-3-yl)pyrimidin-2-yl)aminophenyl]benzamide hydrochloride] returned a melting point of 183 to 185 °C. In data set [1], the IC50 was over 50 µg/mL.
Broadly, the Cmax is the peak of the concentration-time curve. For orientation: Tmax means the time from dosing to the highest level. Usually AUC stands for concentration integrated over time. A low value points to less exposure. For the molecule `Cc1ccc(NC(=O)c2ccc(CN3CCN(C)CC3)cc2)cc1Nc1nccc(-c2cccnc2)n1` [Imatinib mesylate, reference compound], in data set [4], the Cmax is 2720 ng/mL and the time of peak concentration (Tmax) stood at 2.3 h. The AUC in data set [4] (trapezoid rule) was found to be 26500 ng·h/mL.
